Measured values as given in PMC10703812, “Understanding the molecular mechanisms of odorant binding and activation of the human OR52 family” (Nature Communications, 2023).
“And” between values parts separate entries of the source, which are not always exact repeats. Equal entries are not always repeated.

Assays:
[1] = system: OR52cs R265A; assay: CRE luciferase assay in Hana3A cells, mutant; format: cell-based, human; details: 100 µM carboxylic acid; Fig.S7a, single experiments
Experimental: (§1) For cAMP assay, CRE luciferase assay, and surface ELISA, the full-length OR52cs construct was cloned into the pcDNA3.1 vector. The Lucy signal sequence and FLAG peptide sequence were added to the N-terminus. Mutant constructs were generated by site-directed mutagenesis. For BRET assay, eYFP was added at the C-terminus of OR52cs with a GGGGS linker. Rluc was added to Gα for resonance partner (after L99 for Gαs, and I100 for Gαolf, respectively, with GGGGS linker back and forth).
48 h after infection, cells were treated with odorants and incubated at 37 °C for 4 h. […] All values were divided by the Renilla luciferase activity to normalize the effect of cell confluence. All data were analyzed using GraphPad Prism 9.4.1.

[2] = system: OR52cs; assay: cAMP signaling assay (cAMP sensor) in Hana3A cells; format: cell-based, human; details: single experiments
Experimental: For cAMP assay, CRE luciferase assay, and surface ELISA, the full-length OR52cs construct was cloned into the pcDNA3.1 vector. The Lucy signal sequence and FLAG peptide sequence were added to the N-terminus. Mutant constructs were generated by site-directed mutagenesis. For BRET assay, eYFP was added at the C-terminus of OR52cs with a GGGGS linker. Rluc was added to Gα for resonance partner (after L99 for Gαs, and I100 for Gαolf, respectively, with GGGGS linker back and forth). […]
(§2) Hana3A cells were seeded on 96-well white microplates and transfected with OR52cs or the corresponding mutants and cAMP sensor (Promega). The medium was exchanged with CO2-independent medium (Gibco) supplemented with 0.375 mg ml^−1 D-luciferin (Nanolight) 48 h after infection, and cells were incubated in the dark at 20 °C for 2 h. Basal luminescence was detected using a Tristar 2 LB 942 multimode reader (Berthold) until it reached a plateau. Subsequently, various concentrations of odorants and forskolin (Sigma-Aldrich) were added to each well, and luminescence was measured again. Data were analyzed and plotted using GraphPad Prism 9.4.1.

[3] = system: OR52L1; set-up: method as in earlier work; details: cited from earlier work
[4] = system: OR52cs V158F/V209M; assay: cAMP signaling assay, mutant; format: cell-based, human; details: for cAMP response: Fig.S8b source data, single experiments
Experimental: as §1, §2

[5] = system: OR52cs V158F; assay: cAMP signaling assay, mutant; format: cell-based, human; details: for cAMP response: Fig.S8b source data, single experiments
Experimental: as §1, §2

[6] = system: OR52cs; assay: CRE luciferase assay in Hana3A cells; format: cell-based, human; details: for relative fold of CRE luciferase activity: Fig.S7b, single experiments
Experimental: as §1
Hana3A cells were seeded on 96-well white microplates (SPL) and transfected with plasmids encoding CRE-luciferase, OR52cs or R265^6.59A mutant, Renilla luciferase, RTP1S, and Ric8b at a […] ratio 24 h after seeding. 48 h after infection, cells were treated with odorants and incubated at 37 °C for 4 h. Luminescence was measured using a Tristar 2 LB 942 multimode reader (Berthold). All values were divided by the Renilla luciferase activity to normalize the effect of cell confluence. All data were analyzed using GraphPad Prism 9.4.1.

[7] = odorant 9.18274e-6 M, Fig.1a source data
[8] = odorant 3.0303e-5 M, Fig.1a source data
[9] = odorant 0.0001 M, Fig.1a source data
[10] = odorant 9.18274e-8 M, Fig.S8b source data
[11] = odorant 9.18274e-7 M, Fig.S8b source data
[12] = odorant 9.18274e-6 M, Fig.S8b source data
[13] = odorant 3.0303e-5 M, Fig.S8b source data
[14] = odorant 0.0001 M, Fig.S8b source data
[15] = odorant 0.001 M, Fig.S8b source data

| SMILES | relative fold (luciferase activity over DMSO) [1] | cAMP response [2, 7] | cAMP response ([4]; odorant 9.18274e-8 M) | cAMP response ([4]; odorant 9.18274e-7 M) | cAMP response ([4]; odorant 9.18274e-6 M) | cAMP response ([4]; odorant 3.0303e-5 M) | cAMP response ([4]; odorant 0.0001 M) | cAMP response ([4]; odorant 0.001 M) | cAMP response ([5]; odorant 9.18274e-8 M) | cAMP response ([5]; odorant 9.18274e-7 M) | cAMP response ([5]; odorant 9.18274e-6 M) | cAMP response ([5]; odorant 3.0303e-5 M) | cAMP response ([5]; odorant 0.0001 M) | cAMP response ([5]; odorant 0.001 M) | cAMP response [2, 10] | cAMP response [2, 11] | cAMP response [2, 12] | cAMP response [2, 13] | cAMP response [2, 14] | cAMP response [2, 15] | further results |
| --- | --- | --- | --- | --- | --- | --- | --- | --- | --- | --- | --- | --- | --- | --- | --- | --- | --- | --- | --- | --- | --- |
| CCCCCCCCCC(=O)O [Decanoate, decanoate] | 1.3086 fold and 1.135 fold and 1.747 fold and 1.1432 fold | 23.4129 and 25.1996 and 45.8933 |  |  |  |  |  |  |  |  |  |  |  |  |  |  |  |  |  |  |  |
| CCCCCCCCC(=O)O [Nonanoate, nonanoate] | 1.195 fold and 0.996 fold and 1.289 fold and 1.267 fold | 36.8538 and 30.3132 and 25.7666 |  |  |  |  |  |  |  |  |  |  |  |  |  |  |  |  |  |  | cAMP response [2, 8]: 65.8721 and 78.3812 and 58.155; cAMP response [2, 9]: 84.5947 and 88.3315 and 72.5955 |
| CCCCC(=O)O [Pentanoate, pentanoate] |  |  | -0.5993% and 0.7689% and 1.106% | -0.2116% and 0.634% and 0.6548% | 0.981% and 2.2804% and 2.576% | 3.113% and 5.861% and 4.955% | 9.203% and 15.4507% and 12.8173% | 39.0499% and 48.7069% and 47.2503% | 0.9264% and 0.2953% and 1.001% | 0.9435% and 0.3179% and 1.755% | 1.032% and 0.4577% and 1.961% | 1.125% and 0.847% and 2.468% | 1.499% and 1.023% and 3.422% | 5.439% and 4.505% and 7.762% | -0.162% and 0.6359% and -0.04254% | 0.07645% and 0.3953% and 0.2459% | 0.2758% and 0.7357% and 0.01532% | 0.2715% and 0.6901% and 0.4212% | 0.1615% and 1.39% and 0.4292% | 2.769% and 2.642% and 1.705% | response of OR52L1 (in words) [3]: responsive |
| CCCCCCC(=O)O [Heptanoate, heptanoate] | 1.17 fold and 1.091 fold and 1.293 fold and 0.9952 fold |  | 0.3154% and 0.3231% and 0.3938% | 4.347% and 1.257% and 3.311% | 29.4811% and 22.451% and 26.2109% | 75.795% and 74.3485% and 82.8548% | 83.9682% and 91.5635% and 102.817% | 81.746% and 93.3745% and 90.7212% | 0.8685% and 0.5114% and 0.9157% | 1.104% and 0.7302% and 1.422% | 3.442% and 2.688% and 4.371% | 27.9975% and 25.6918% and 43.6578% | 66.0899% and 63.5108% and 78.243% | 94.8324% and 85.8407% and 105.113% |  |  |  |  |  |  | downstream signal / selectivity (in words) ([5]; Supplementary Fig. 8): enhanced selectivity; cAMP response [2, 8]: 56.3478 and 75.8757 and 80.5266; cAMP response [2, 9]: 81.4095 and 85.4775 and 102.977; cAMP response ([2]; odorant 0.001 M, Fig.1a source data): 96.609 and 80.1017 and 111.088 |
| CCCCCCCCO [Octanol, octanol] |  |  |  |  |  |  |  |  |  |  |  |  |  |  |  |  |  |  |  |  | activation of OR52cs (in words) ([6]; Supplementary Fig. 7): failed to activate; relative fold of CRE luciferase activity ([6]; odorant 10 μM): 1.663 fold and 1.557 fold and 1.263 fold and 1.4999 fold; relative fold of CRE luciferase activity ([6]; odorant 50 μM): 1.747 fold and 1.809 fold and 1.706 fold and 1.694 fold; relative fold of CRE luciferase activity ([6]; odorant 100 μM): 1.917 fold and 1.93 fold and 1.901 fold and 2.061 fold; relative fold of CRE luciferase activity ([6]; odorant 250 μM): 1.931 fold and 2.053 fold and 2.136 fold and 2.342 fold; relative fold of CRE luciferase activity ([6]; odorant 500 μM): 1.887 fold and 2.082 fold and 2.24 fold and 2.823 fold |
| CCCCCC(=O)O [Hexanoate, hexanoate] | 1.1154 fold and 1.251 fold and 1.361 fold and 1.012 fold |  | 1.222% and -0.2583% and 0.8037% | 3.048% and 0.3713% and 1.148% | 18.0149% and 8.5338% and 10.0807% | 41.8588% and 26.1015% and 26.6027% | 60.5576% and 50.8798% and 56.2545% | 83.4195% and 80.8044% and 89.7505% | 0.5855% and -0.5118% | 0.5361% and -0.697% | 0.7501% and -0.4246% | 1.164% and -0.1819% | 1.41% and -0.4498% | 3.85% and 2.176% |  |  |  |  |  |  | response / preference (in words) ([4]; Supplementary Fig. 8): increased responses |
| CCC(=O)O [Propionate, propionate] |  |  | 0.9618% and -0.01314% and -0.2398% | 1.572% and -0.593% and -0.7182% | 1.935% and -0.7307% and 0.6877% | 2.83% and 0.05137% and 0.2753% | 2.508% and 0.3655% and 0.1006% | 6.973% and 2.2608% and 3.165% | 0.2434% and 0.9095% | -0.2446% and -2.828% | 0.996% and -2.758% | -1.498% and -2.916% | -0.9959% and -2.168% | 2.021% and 1.439% | -0.2092% and 0.1117% and 0.5205% | -0.1831% and 0.1609% and 0.123% | -0.2867% and 0.1185% and 0.09817% | 0.2368% and 0.05491% and -0.002619% | -0.3215% and 0.04237% and 0.3227% | 0.5115% and 1.283% and 1.204% |  |
| CCCC(=O)O [Butyrate] |  |  | 0.4134% and 1.119% and 0.2589% | 0.6599% and 0.9287% and 0.2324% | 1.238% and 1.86% and 0.7353% | 1.067% and 2.455% and 1.672% | 1.838% and 4.182% and 3.8607% | 12.4605% and 15.8218% and 16.2328% | 0.537% and 0.1319% and 1.733% | 0.488% and 0.3268% and 1.1839% | 0.5541% and 0.2838% and 1.329% | 0.4886% and 0.5179% and 1.414% | 0.8581% and 0.2707% and 1.963% | 2.495% and 1.981% and 6.452% | -0.08428% and 0.1653% and 0.2939% | -0.5369% and 0.4001% and -0.04745% | 0.134% and 0.6883% and 0.4284% | 0.1103% and 0.05302% and 0.2786% | -0.1073% and 0.8927% and 0.1591% | 1.5929% and 1.31% and 1.1069% |  |
| CCCCCCCCCCC(=O)O [Undecanoate, undecanoate] | 1.911 fold and 1.478 fold and 1.422 fold and 1.276 fold | 17.2544 and 14.2907 and 24.4976 |  |  |  |  |  |  |  |  |  |  |  |  |  |  |  |  |  |  |  |
